{
  "source": "patent US20120115896A1",
  "about": "“ISOGENIC HUMAN CELL LINES COMPRISING MUTATED CANCER ALLELES AND PROCESS USING THE CELL LINES” (priority 2008, published 2012)",
  "key": {"[1]": {"system": "hTERT-HME1 cells of the indicated genotype (WT, PIK3CA KI, KRAS G13D, DKI KRAS G13D + PIK3CA H1047R)", "assay": "Cell cycle analysis by flow cytometry (propidium iodide) after everolimus 500 nM for 48 h", "type": "cell-based, human", "settings": "for cells in G1 phase, Mean / cells in G2/M phase, Mean / cells in S phase, Mean / cells in G2 + S, Mean / cells in Sub-G1, Mean: FACS", "method": "(§1) (A) CFSE-labelled cells were analyzed by flow cytometry at the indicated time-points (top panels). The maximum fluorescence intensity for all samples was recorded at day 0 (depicted in filled black). […] (B) Cells of the indicated genotype were incubated with everolimus 500 nM for 48 h, after which cell cycle was analyzed by flow cytometry. No increase of the subG1 apoptotic fraction of cells was observed upon treatment. Representative data from 3 independent experiments are shown.\n(§2) For time-course experiments, on the initial day hTERT-HME1 cells were labelled with 3 μM CFSE (5-(and -6)-carboxyfluorescein diacetate, succinimidyl ester, Invitrogen C1157, Milan, Italy) in PBS in the dark for 30 minutes. After washing and recording baseline fluorescence, cells were plated in media containing 1% FBS and 2 ng/mL EGF, and treatment with everolimus was initiated, replenishing the drug on a daily basis. For cell cycle analysis, trypsinized cells were washed with PBS and cell nuclei DNA were stained with propidium iodide (PI) for at least 120 minutes using a commercial kit (DNA con 3, Consul T.S., Orbassano, Italy).\n(§3) All fluorescence levels were detected by flow cytometry on a FACSCalibur (Becton Dickinson, Milan, Italy) and analyzed using CellQuest software. The number of events collected for each sample varied between 15,000 and 50,000. After doublets exclusion, an extended analysis of the DNA content and calculations of the percentage of cells in each phase of the cell cycle were performed on ModFit Lt software (Verity Software House, Topsham, Me.).\nTo shed light on the preferential effect induced by everolimus in PIK3CA KI clones, the present inventors also performed FACS analysis. […] The data shown in table 7 are the results of hTERT-HME1 cells of the indicated genotype incubated for 48 h with everolimus (500 nM), wherein the effect on cell cycle was analyzed by FACS. […] Accordingly, the proportions of cells in the S- and G2/M-phases decreased. Means of at least 4 independent experiments are shown. Significance by paired t test was taken at p<0.01.\nTo further explore the role of mutant KRAS on everolimus' response, the present inventors recapitulated the genetic milieu of the HCT116 colorectal cancer cells in hTERT-HME1 cells, by introducing via homologous recombination both KRAS G13D and PIK3CA H1047R alleles in their genome. This approach generated double-KI (DKI) cells, in which each mutation is expressed under the corresponding gene's own promoter. […] Means of at least 4 independent experiments are shown. Significance by paired t test was taken at p<0.01."}, "[2]": {"system": "DLD-1 colorectal cancer cells and derivative clones (DKO-1, DKO-3, DKO-4, PIK3CA WT/mutant)", "assay": "Viability (ATP assay) of DLD-1 cells and isogenic KRAS / PIK3CA derivative clones", "quoted_text": "(§4) Results are expressed as percent of viability compared to cells treated with DMSO only ('control') and represent mean±SD of at least three independent observations.\n(§5) After serial dilutions, 100 μl of drugs in serum free medium were added to cells with a multichannel pipette. Vehicle and medium-only containing wells were added as controls. Plates were incubated at 37° C. in 5% CO2 for 96 h, after which cell viability was assessed by ATP content using the CellTiter-Glo® Luminescent Assay (Promega Madison, Wis.)."}, "[3]": {"system": "hTERT-HME1 WT, PIK3CA E545K and H1047R KI cells", "assay": "CFSE time-course of cell divisions by flow cytometry", "type": "cell-based, human", "settings": "everolimus 500 nM, 7 days", "method": "as §1, §2, §3"}, "[4]": {"system": "hTERT-HME1 cells carrying PIK3CA (E545K and H1047R) KI", "assay": "Drug assay: cell viability by ATP content (96 h) and Hoechst/propidium iodide staining, KI versus parental cells; ΔKI pharmarray analysis", "settings": "hTERT-HME1"}, "[5]": {"system": "HCT 116 colorectal cancer cells and derivative clones (HKh-2, HKe-3, HK2-6, PIK3CA WT/mutant)", "assay": "Viability (ATP assay) of HCT 116 cells and isogenic KRAS / PIK3CA derivative clones", "quoted_text": "as §4, §5"}, "[6]": {"system": "hTERT-HME1 DKI cells carrying PIK3CA (H1047R) and EGFR (delE746-A750)"}, "[7]": {"system": "phosphorylation of p70S6K, RpS6, AKT and MAPK in HCT 116 and KRAS WT/- HKe-3 cells", "assay": "Biochemical effects of everolimus: immunoblot and ELISA of phospho-proteins", "type": "cell-based, human", "settings": "everolimus 500 nM, 30 minutes", "method": "(A, D) After 30 minutes'treatment with everolimus 500 nM, HCT 116 parental cells and its derivative KRAS WT/-HKe-3 clone were lysed and immunoblotted with the anti-phospho-P70S6K, totalP70S6K, phospho-MAPK and total MAPK (B, C, E) The same lysates were used also for ELISA measurements of total AKT, phosphoAKT (Thr308), phosphoAKT (Ser473), total RpS6 and phosphoRpS6 levels. Numbers indicate the ratio of phosphorylated protein related to total protein levels and are normalized respect to the untreated (NT) HCT 116 cells.\nSDS PAGE was performed using Invitrogen Precasted gels (Invitrogen Carlsbad, Calif.); western blotting transfer onto Hybond-C Extra membranes (Amersham, Amersham Biosciences, Uppsala, Sweden) was done following standard methods. The primary antibodies used for immunoblotting were: Anti-AKT (Cell Signaling, Technology, Danvers, Mass.); Anti-phospho-AKT S473 (Cell Signaling, Technology, Danvers, Mass.); Anti-Actin and Anti-Vinculin (Sigma-Aldrich, St. Louis, Mo.); Phospho-p44/42 Map kinase (Thr202/Tyr204) (Cell Signaling, Technology, Danvers, Mass.); Anti-phospho-EGFR Receptor (Tyr 1068) and Anti EGFR Receptor (Cell Signaling Technology, Danvers, Mass.)."}, "[8]": {"settings": "hTERT-HME1 DKI KRAS G13D + PIK3CA H1047R, propidium iodide"}, "[9]": {"settings": "hTERT-HME1 KI KRAS G13D, propidium iodide"}},
  "note": "Where two headings read alike, the source gives them in different places.",
  "data": [
    {"smiles": "CO[C@H]1C[C@@H]2CC[C@@H](C)[C@@](O)(O2)C(=O)C(=O)N2CCCC[C@H]2C(=O)O[C@H]([C@H](C)C[C@@H]2CC[C@@H](OCCO)[C@H](OC)C2)CC(=O)[C@H](C)/C=C(\\C)[C@@H](O)[C@@H](OC)C(=O)[C@H](C)C[C@H](C)/C=C/C=C/C=C/1C", "note": "[everolimus, Everolimus]", "values": [
      {"measurement": "cell cycle response of DKI cells (KRAS G13D and PIK3CA H1047R)", "setting": "[1]", "value": "cell cycle response comparable to that observed in the parental WT population"},
      {"measurement": "cells in G1 phase, Mean", "setting": "[1]; [8]", "value": 77.5},
      {"measurement": "cells in G2/M phase, Mean", "setting": "[1]; [8]", "value": 10.5},
      {"measurement": "cells in S phase, Mean", "setting": "[1]; [8]", "value": 12.0},
      {"measurement": "cells in G1 phase, Mean", "setting": "[1]; [9]", "value": 75.7},
      {"measurement": "cells in G2/M phase, Mean", "setting": "[1]; [9]", "value": 13.1},
      {"measurement": "cells in S phase, Mean", "setting": "[1]; [9]", "value": 11.2},
      {"measurement": "cells in G1 phase, Mean", "setting": "[1]; hTERT-HME1 KI PIK3CA E545K", "value": 78.5},
      {"measurement": "cells in G2 + S, Mean", "setting": "[1]; hTERT-HME1 KI PIK3CA E545K", "value": 21.5},
      {"measurement": "cells in G2/M phase, Mean", "setting": "[1]; hTERT-HME1 KI PIK3CA E545K", "value": 12.7},
      {"measurement": "cells in S phase, Mean", "setting": "[1]; hTERT-HME1 KI PIK3CA E545K", "value": 8.8},
      {"measurement": "cells in Sub-G1, Mean", "setting": "[1]; hTERT-HME1 KI PIK3CA E545K", "value": 0.9},
      {"measurement": "cells in G1 phase, Mean", "setting": "[1]; hTERT-HME1 KI PIK3CA H1047R", "value": 88.7},
      {"measurement": "cells in G2 + S, Mean", "setting": "[1]; hTERT-HME1 KI PIK3CA H1047R", "value": 11.3},
      {"measurement": "cells in G2/M phase, Mean", "setting": "[1]; hTERT-HME1 KI PIK3CA H1047R", "value": 4.9},
      {"measurement": "cells in S phase, Mean", "setting": "[1]; hTERT-HME1 KI PIK3CA H1047R", "value": 6.4},
      {"measurement": "cells in Sub-G1, Mean", "setting": "[1]; hTERT-HME1 KI PIK3CA H1047R", "value": 0.6},
      {"measurement": "cells in G1 phase, Mean", "setting": "[1]; hTERT-HME1 WT", "value": 75.7},
      {"measurement": "cells in G2 + S, Mean", "setting": "[1]; hTERT-HME1 WT", "value": 24.3},
      {"measurement": "cells in G2/M phase, Mean", "setting": "[1]; hTERT-HME1 WT", "value": 14.2},
      {"measurement": "cells in S phase, Mean", "setting": "[1]; hTERT-HME1 WT", "value": 10.1},
      {"measurement": "cells in Sub-G1, Mean", "setting": "[1]; hTERT-HME1 WT", "value": 0.9},
      {"measurement": "apoptosis", "setting": "[1]; vehicle versus drug-treated, FIG. 18B", "value": "almost undetectable"},
      {"measurement": "response of DLD-1 clones knock-out for the mutated KRAS D13 allele versus parental / DKO-1", "setting": "[2]; DKO-3 and DKO-4, FIG. 7C", "value": "more sensitive to everolimus"},
      {"measurement": "response of DLD-1 cells knock-out for the mutated PIK3CA K545 allele", "setting": "[2]; FIG. 14B", "value": "as sensitive to everolimus as either the corresponding parental cells or a clone retaining only the PIK3CA mutated allele"},
      {"measurement": "slowing of cell growth (CFSE)", "setting": "[3]; PIK3CA E545K", "value": "less pronounced"},
      {"measurement": "slowing of cell growth (CFSE)", "setting": "[3]; PIK3CA H1047R", "value": "particularly evident"},
      {"measurement": "slowing of cell growth (CFSE)", "setting": "[3]; WT cells", "value": "only minimal"},
      {"measurement": "pharmarray: differential response of PIK3CA mutated cells versus WT", "setting": "[4]; FIG. 5G", "value": "affecting preferentially"},
      {"measurement": "antiproliferative effect on PIK3CA KI clones versus WT", "setting": "[4]; wide range of concentrations, FIG. 6A", "value": "significant antiproliferative effect only in mutated cells"},
      {"measurement": "response of HCT 116 parental and isogenic cells carrying mutated KRAS", "setting": "[5]; FIG. 7B", "value": "equally resistant"},
      {"measurement": "response of HCT 116 derivative cells retaining only the KRAS WT allele", "setting": "[5]; HKh-2 and HKe-3, FIG. 7B", "value": "sensitive to everolimus"},
      {"measurement": "response of HCT 116 cells in which PIK3CA H1047R had been deleted", "setting": "[5]; all clones retain mutated KRAS, FIG. 14A", "value": "non-responsive to everolimus"},
      {"measurement": "ΔKI PIK3CA + EGFR", "setting": "[6]; Log(M) −5.70", "value": 0},
      {"measurement": "ΔKI PIK3CA + EGFR", "setting": "[6]; Log(M) −6.70", "value": 1.38},
      {"measurement": "ΔKI PIK3CA + EGFR", "setting": "[6]; Log(M) −7.70", "value": 0},
      {"measurement": "ΔKI PIK3CA + EGFR", "setting": "[6]; Log(M) −8.70", "value": 0.68},
      {"measurement": "ΔKI PIK3CA + EGFR", "setting": "[6]; Log(M) −9.70", "value": 0},
      {"measurement": "MAPK phosphorylation in drug treated HKe-3 cells compared to parental", "setting": "[7]; FIG. 15A", "value": "higher level of MAPK phosphorylation"},
      {"measurement": "levels of activated RpS6", "setting": "[7]; FIG. 15E", "value": "decreased accordingly"},
      {"measurement": "phosphorylation of p70S6K", "setting": "[7]; parental and KRAS D13 deleted cells, FIG. 15D", "value": "abrogated"}
    ]}
  ]
}
